We go through 3 molecules from ChEMBL document CHEMBL5728791, “Heteroaromatic derivatives as NIK inhibitors” (2021).

In general, IC50 refers to the concentration needed to halve the response being measured.

For the assay, the target named is Mitogen-activated protein kinase kinase kinase 14 (Homo sapiens, UniProt Q99558). The assay can be described thus: Inhibition of auto-phosphorylation of recombinant human NF-kappaB-inducing kinase (NIK/MAP3K14) activity: NIK/MAP3K14 auto-phosphorylation activity was measured using the AlphaScreen® (αscreen) format (Perkin Elmer). All compounds tested were dissolved in dimethyl sulfoxide (DMSO) and further dilutions were made in assay buffer. Final DMSO concentration was 1% (v/v) in assays. Assay buffer was 50 mM Tris pH 7.5 containing 1 mM EGTA (ethylene glycol tetraacetic acid), 1 mM DTT (dithiothreitol), 0.1 mM Na3VO4, 5 mM MgCl2, 0.01% Tween® 20. Assays were carried out in 384 well Alphaplates (Perkin Elmer). Incubations consisted of compound, 25 microM Adenosine-5′-triphosphate (ATP), and 0.2 nM NIK/MAP3K14. Incubations were initiated by addition of GST-tagged NIK/MAP3K14 enzyme, carried out for 1 h at 25° C. and terminated by addition of stop buffer containing anti-phospho-IKK Ser176/180 antibody. Protein A Acceptor and Glutathione-Donor beads were added before reading using an EnVision® Multilabel Plate Reader (Perkin Elmer). Signal obtained in the wells containing blank samples was subtracted from all other wells and IC50's were determined by fitting a sigmoidal curve to % inhibition of control versus Log10 compound concentration.
Sequence of Mitogen-activated protein kinase kinase kinase 14 (Q99558 whole entry): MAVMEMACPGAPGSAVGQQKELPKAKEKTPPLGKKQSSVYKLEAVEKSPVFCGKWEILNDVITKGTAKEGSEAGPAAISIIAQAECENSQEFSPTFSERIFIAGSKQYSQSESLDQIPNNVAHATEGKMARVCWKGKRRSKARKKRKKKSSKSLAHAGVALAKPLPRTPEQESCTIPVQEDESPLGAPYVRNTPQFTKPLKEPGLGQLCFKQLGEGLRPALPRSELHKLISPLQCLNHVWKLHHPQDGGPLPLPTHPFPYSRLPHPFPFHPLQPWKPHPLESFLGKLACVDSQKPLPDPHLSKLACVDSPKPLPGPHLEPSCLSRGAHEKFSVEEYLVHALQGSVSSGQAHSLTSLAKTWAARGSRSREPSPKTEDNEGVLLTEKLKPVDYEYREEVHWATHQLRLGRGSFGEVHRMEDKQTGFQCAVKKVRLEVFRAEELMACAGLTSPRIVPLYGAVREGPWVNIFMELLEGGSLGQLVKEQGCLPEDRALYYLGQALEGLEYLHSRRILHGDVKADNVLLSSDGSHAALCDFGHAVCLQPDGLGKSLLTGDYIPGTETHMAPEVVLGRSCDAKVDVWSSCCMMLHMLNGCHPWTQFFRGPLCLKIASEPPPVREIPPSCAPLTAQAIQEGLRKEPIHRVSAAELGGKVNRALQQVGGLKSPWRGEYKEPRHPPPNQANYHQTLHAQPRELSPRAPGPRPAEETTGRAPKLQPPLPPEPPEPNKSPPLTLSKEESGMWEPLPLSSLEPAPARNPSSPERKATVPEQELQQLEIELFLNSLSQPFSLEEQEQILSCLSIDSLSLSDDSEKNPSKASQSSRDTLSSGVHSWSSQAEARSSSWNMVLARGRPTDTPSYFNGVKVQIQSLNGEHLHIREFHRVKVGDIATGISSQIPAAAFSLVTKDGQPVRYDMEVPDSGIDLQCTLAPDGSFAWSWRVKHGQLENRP
Regarding `COCCCn1nc(C)cc1Nc1nccc(-c2cc(C#N)c3c(c2)[C@@](C)(CO)CN3)n1`, the concentration for half-maximal inhibition (IC50) is 4 nM. As to `Cc1nn(C)cc1Nc1nccc(-c2cc(C#N)c3c(c2)C(C)(CO)CN3)n1` (stereo not drawn), the IC50 was found to be 3.2 nM. Turning to `Cc1cc(Nc2nccc(-c3cc(C#N)c4c(c3)C(C)(CO)CN4)n2)n(CCN(C)C)n1` (stereo not drawn), the 50% inhibitory concentration (IC50) was determined as 21 nM.
